# Experimental data reported in patent US8609852B2, “Thiazolyl mGluR5 antagonists and methods for their use” (Merck Sharp & Dohme Corp., priority 2004, dated 2013).
# Where a name gives a salt, the structure may show the parent alone.
# Tests used:
# hmGluR5a receptor = hmGluR5a receptor (Homo sapiens (Human), UniProt P41594); experiment: Calcium Flux Assay; type: cell-based; settings: hmGluR5a/L38-20 cells, glutamate-evoked [Ca2+]i
# Method: The activity of compounds was examined against the hmGluR5a receptor stably expressed in mouse fibroblast Ltk− cells (the hmGluR5a/L38-20 cell line). See generally Daggett et al., Neuropharmacology 34:871-886 (1995). Receptor activity was detected by changes in intracellular calcium ([Ca^2+]i) measured using the fluorescent calcium-sensitive dye, fura-2. hmGluR5a/L38-20 cells were plated onto 96-well plates, and loaded with 3 µM fura-2 for 1 h. Unincorporated dye was washed from the cells, and the cell plate was transferred to a custom-built 96-channel fluorimeter (SIBIA-SAIC, La Jolla, Calif.) which is integrated into a fully automated plate handling and liquid delivery system. Cells were excited at 350 and 385 nm with a xenon source combined with optical filters. Emitted light was collected from the sample through a dichroic mirror and a 510 nm interference filter and directed into a cooled CCD camera (Princeton Instruments). Image pairs were captured approximately every 1 s, and ratio images were generated after background subtraction. After a basal reading of 20 s, an EC80 concentration of glutamate ([…]) was added to the well, and the response evaluated for another 60 s. The glutamate-evoked increase in [Ca^2+]i in the presence of the screening compound was compared to the response of glutamate alone (the positive control).
# [1] = biological target: metabotropic glutamate receptor subtype 5 (Rattus norvegicus (Rat), UniProt P31424); experiment: [3H]-mGluR5 Antagonist Binding to Rodent Brain Membranes
# Chain of metabotropic glutamate receptor subtype 5 (P31424 21-1203): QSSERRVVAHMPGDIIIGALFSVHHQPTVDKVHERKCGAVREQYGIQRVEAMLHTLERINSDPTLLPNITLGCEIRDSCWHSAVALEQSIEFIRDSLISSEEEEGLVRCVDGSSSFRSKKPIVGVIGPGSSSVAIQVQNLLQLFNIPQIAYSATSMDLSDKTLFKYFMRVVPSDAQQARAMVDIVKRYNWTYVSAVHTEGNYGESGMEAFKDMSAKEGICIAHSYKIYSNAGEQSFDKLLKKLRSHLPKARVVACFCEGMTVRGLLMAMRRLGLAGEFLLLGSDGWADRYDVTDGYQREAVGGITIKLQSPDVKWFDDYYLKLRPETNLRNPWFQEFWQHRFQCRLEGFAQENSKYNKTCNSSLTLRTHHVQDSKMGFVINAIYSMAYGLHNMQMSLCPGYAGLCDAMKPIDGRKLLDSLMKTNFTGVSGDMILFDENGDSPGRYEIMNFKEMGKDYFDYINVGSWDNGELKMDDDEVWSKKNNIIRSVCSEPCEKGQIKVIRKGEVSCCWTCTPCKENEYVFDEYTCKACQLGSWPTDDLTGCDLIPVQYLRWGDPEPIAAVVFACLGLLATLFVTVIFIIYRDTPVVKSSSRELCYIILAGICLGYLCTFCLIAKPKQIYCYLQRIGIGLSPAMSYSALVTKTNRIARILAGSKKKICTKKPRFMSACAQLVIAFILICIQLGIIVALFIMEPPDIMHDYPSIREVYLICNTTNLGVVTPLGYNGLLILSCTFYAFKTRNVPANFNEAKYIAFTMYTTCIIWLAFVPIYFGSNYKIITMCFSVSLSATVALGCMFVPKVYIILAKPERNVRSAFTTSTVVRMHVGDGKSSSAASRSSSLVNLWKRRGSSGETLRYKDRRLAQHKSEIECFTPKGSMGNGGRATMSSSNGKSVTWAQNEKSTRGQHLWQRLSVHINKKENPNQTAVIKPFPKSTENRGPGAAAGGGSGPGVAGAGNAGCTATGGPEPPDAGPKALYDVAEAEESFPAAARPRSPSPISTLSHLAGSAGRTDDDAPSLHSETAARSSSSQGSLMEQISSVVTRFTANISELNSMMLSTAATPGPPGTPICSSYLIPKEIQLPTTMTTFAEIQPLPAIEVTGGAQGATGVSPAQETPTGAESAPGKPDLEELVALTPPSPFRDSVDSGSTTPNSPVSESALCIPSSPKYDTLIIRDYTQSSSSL
# Method: In accordance with Anderson J J, Rao S P, Rowe B, Giracello D R, Holtz G, Chapman D F, Tehrani L, Bradbury M J, Cosford N D, Varney M A, [^3H]Methoxymethyl-3-[(2-methyl-1,3-thiazol-4-yl)ethynyl]pyridine binding to metabotropic glutamate receptor subtype 5 in rodent brain: in vitro and in vivo characterization. J Pharmacol Exp Ther. 2002 December; 303 (3):1044-51, membranes were prepared (as described in Ransom R W and Stec N L (1988) Cooperative modulation of [^3H]MK-801 binding to the N-methyl-D-aspartate receptor-ion channel complex by L-glutamate, glycine, and polyamines. J Neurochem 51:830-836) using whole rat brain, or mGlu5^+/+ or mGlu5^−/− whole mouse brain.
# Binding assays were performed as described in Schaffhauser H, Richards J G, Cartmell J, Chaboz S, Kemp J A, Klingelschmidt A, Messer J, Stadler H, Woltering T and Mutel V (1998) In vitro binding characteristics of a new selective group II metabotropic glutamate receptor radioligand, [^3H]LY354740, in rat brain. Mol Pharmacol 53:228-233) at room temperature with slight modifications. Briefly, membranes were thawed and washed once with assay buffer (50 mM HEPES, 2 mM MgCl2, pH 7.4), followed by centrifugation at 40,000×g for 20 min. The pellet was resuspended in assay buffer and briefly homogenized with a Polytron.
# For protein linearity experiments, increasing concentrations of membrane protein were added to 96-well plates in triplicate and binding was initiated by addition of 20 nM [^3H]methoxymethyl-3-[(2-methyl-1,3-thiazol-4-yl)ethynyl]pyridine. The assay was incubated for 2 h and non-specific binding was determined using 10 μM MPEP. The binding was terminated by rapid filtration through glass-fiber filters (Unifilter-96 GF/B plate, Packard) using a 96-well plate Brandel cell harvester. Following addition of scintillant, the radioactivity was determined by liquid scintillation spectrometry. Protein measurements were performed by BioRad-DC Protein assay using bovine serum albumin as the standard.
# Saturation binding experiments were performed in triplicate with increasing concentrations of [^3H]methoxymethyl-3-[(2-methyl-1,3-thiazol-4-yl)ethynyl]pyridine (1 pM to 100 nM). The time course of association was measured by the addition of 10 nM [^3H]methoxymethyl-3-[(2-methyl-1,3-thiazol-4-yl)ethynyl]pyridine to the membranes at different time points (0-240 min), followed by filtration. Dissociation was measured by the addition of 100 μM unlabeled methoxymethyl-3-[(2-methyl-1,3-thiazol-4-yl)ethynyl]pyridine at different time points to membranes previously incubated for 3 h with 10 nM [^3H]methoxymethyl-3-[(2-methyl-1,3-thiazol-4-yl)ethynyl]pyridine. For competition experiments, 100 μg membrane protein and 10 nM [^3H]methoxymethyl-3-[(2-methyl-1,3-thiazol-4-yl)ethynyl]pyridine was added to wells containing increasing concentration of the test compound in duplicate (methoxymethyl-3-[(2-methyl-1,3-thiazol-4-yl)ethynyl]pyridine or MPEP). [^3H]-3-Methoxy-5-(pyridin-2-ylethynyl)pyridine may also be used as the radioligand in the procedure described above. (See, Cosford, N. D. P.; Roppe, J.; Tehrani, L.; Seiders, T. J.; Schweiger, E. J. et al. [3H]-Methoxymethyl-MTEP and [3H]-methoxy-PEPy): Potent and selective radioligands for the Metabotropic Glutamate Subtype 5 (mGlu5) Receptor. Bioorg. Med. Chem. Lett. 2003, 13, 351-354.)
# Chain of hmGluR5a receptor (P41594 other isoform, or with tags, fused parts or gaps): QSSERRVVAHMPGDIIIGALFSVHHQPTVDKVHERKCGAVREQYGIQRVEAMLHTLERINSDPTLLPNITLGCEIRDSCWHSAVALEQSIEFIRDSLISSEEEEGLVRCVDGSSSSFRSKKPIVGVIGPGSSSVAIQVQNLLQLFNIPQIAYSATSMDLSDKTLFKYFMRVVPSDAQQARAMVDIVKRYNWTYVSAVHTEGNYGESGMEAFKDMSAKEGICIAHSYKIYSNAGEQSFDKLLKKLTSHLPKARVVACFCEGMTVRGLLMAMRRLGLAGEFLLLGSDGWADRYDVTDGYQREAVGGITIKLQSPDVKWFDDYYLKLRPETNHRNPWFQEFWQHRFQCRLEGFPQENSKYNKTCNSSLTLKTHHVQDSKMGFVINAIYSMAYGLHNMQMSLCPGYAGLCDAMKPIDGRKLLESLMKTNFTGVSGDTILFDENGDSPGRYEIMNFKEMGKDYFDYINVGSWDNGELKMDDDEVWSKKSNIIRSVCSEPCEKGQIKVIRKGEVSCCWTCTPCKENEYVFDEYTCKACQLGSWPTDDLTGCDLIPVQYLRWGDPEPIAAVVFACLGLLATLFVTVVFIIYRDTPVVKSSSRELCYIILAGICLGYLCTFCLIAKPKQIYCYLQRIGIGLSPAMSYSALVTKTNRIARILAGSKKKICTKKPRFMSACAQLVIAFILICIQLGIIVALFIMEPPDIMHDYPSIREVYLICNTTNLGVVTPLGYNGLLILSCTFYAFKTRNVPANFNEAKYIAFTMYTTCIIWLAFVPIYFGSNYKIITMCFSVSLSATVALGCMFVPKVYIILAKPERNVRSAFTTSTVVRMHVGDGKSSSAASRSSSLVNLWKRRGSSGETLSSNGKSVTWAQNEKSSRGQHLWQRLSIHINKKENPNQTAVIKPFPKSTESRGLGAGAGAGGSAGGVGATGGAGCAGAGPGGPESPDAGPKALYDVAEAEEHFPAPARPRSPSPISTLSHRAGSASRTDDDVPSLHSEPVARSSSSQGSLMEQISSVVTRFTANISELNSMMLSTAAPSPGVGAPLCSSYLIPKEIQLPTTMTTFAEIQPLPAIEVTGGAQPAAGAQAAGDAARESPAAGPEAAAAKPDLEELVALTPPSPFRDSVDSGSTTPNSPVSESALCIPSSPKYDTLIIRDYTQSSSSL
Compound,IC50 (hmGluR5a receptor) [nM],Ki [1] [nM]
CCC(C)Sc1ccc(C#Cc2csc(C)n2)cn1 (stereo not shown) [Example 83],2,12
Cc1nc(C#Cc2ccc(N3CC4CCC3C4)nc2)cs1 (stereo not shown) [Example 74],4,7.5
"Cc1nc(C#Cc2cnc(OC(C)C)nc2)cs1 [Example 25, 2-isopropoxy-5-[(2-methyl-1,3-thiazol-4-yl)ethynyl]pyrimidine]",1.4,9
Cc1nc(C#Cc2cnc(OC3CCN(C(=O)OC(C)(C)C)CC3)nc2)cs1 [Example 101],2,24
Cc1nc(C#Cc2ccc(N3CCCC(F)C3)nc2)cs1 (stereo not shown) [Example 61],6,12
Cc1nc(C#Cc2cnc(N3CCCCC3CO)nc2)cs1 (stereo not shown) [Example 107],16,9
"Cc1nc(C#Cc2ccc(OC(C)C)nc2)cs1 [Example 26, 2-isopropoxy-5-[(2-methyl-1,3-thiazol-4-yl)ethynyl]pyridinium trifluoroacetate]",0.1,2
CCC(C)Nc1ncc(C#Cc2csc(C)n2)cn1 (stereo not shown) [Example 94],9,6
CC[C@H](C)Nc1ccc(C#Cc2csc(C)n2)cn1 [Example 62],6,11
Cc1nc(C#Cc2ccc(N3CCCC3)nc2)cs1 [Example 69],5,14
"Cc1nc(C#Cc2cnc(SC(C)(C)C)nc2)cs1 [Example 29, 2-(tert-butylthio)-5-[(2-methyl-1,3-thiazol-4-yl)ethynyl]pyrimidine]",0.5,10
Cc1nc(C#Cc2cnc(N3CC=CC3)nc2)cs1 [Example 104],1.5,6
Cc1nc(C#Cc2ccc(-n3ccc4ccccc43)nc2)cs1 [Example 39],13,4
CCN(CC)c1ncc(C#Cc2csc(C)n2)cn1 [Example 98],4,8
Cc1nc(C#Cc2ccc(NC(C)(C)C)nc2)cs1 [Example 72],5,7
Cc1nc(C#Cc2ccc(C3CCCC3)nc2)cs1 [Example 75],4,4
Cc1nc(C#Cc2ccc(N3C(C)CCC3C)nc2)cs1 (stereo not shown) [Example 58],7,1.5
"Cc1nc(C#Cc2cnc(N3CCCC3C)nc2)cs1 (stereo not shown) [Example 21, 2-(2-methylpyrrolidin-1-yl)-5-[(2-methyl-1,3-thiazol-4-yl)ethynyl]pyrimidine]",1.5,1.5
Cc1nc(C#Cc2cnc(NC(C)(C)C)nc2)cs1 [Example 105],1,1
Cc1nc(C#Cc2cnc(N3CCCC3)nc2)cs1 [Example 97],5,13

# More lines, now with the values ahead:
IC50 (hmGluR5a receptor) [nM],Ki [1] [nM],Compound
0.8,7.5,"CSc1ccccc1-c1ncc(C#Cc2csc(C)n2)cn1 [Example 14, 5-[(2-methyl-1,3-thiazol-4-yl)ethynyl]-2-[2-(methylthio)phenyl]pyrimidine]"
11,7,Cc1nc(C#Cc2ccc(-c3ccc(F)c(F)c3)nc2)cs1 [Example 45]
1,0.9,"COc1ccccc1-c1ccc(C#Cc2csc(C)n2)cn1 [Example 8, 2-(2-methoxyphenyl)-5-[(2-methyl-1,3-thiazol-4-yl)ethynyl]pyridine]"
1.1,0.7,"Cc1nc(C#Cc2ccc(-c3ccccc3Cl)nc2)cs1 [Example 7, 2-(2-chlorophenyl)-5-[(2-methyl-1,3-thiazol-4-yl)ethynyl]pyridine]"
13,8,Cc1ccc(C)c(-c2ccc(C#Cc3csc(C)n3)cn2)c1 [Example 38]
0.4,8.6,"Cc1nc(C#Cc2cnc(-c3cccc(C)c3C)nc2)cs1 [Example 16, 2-(2,3-dimethylphenyl)-5-[(2-methyl-1,3-thiazol-4-yl)ethynyl]pyrimidine]"
9,12.5,Cc1nc(C#Cc2ccc(-c3cc(C#N)ccc3F)nc2)cs1 [Example 48]
6,0.8,CSc1ccccc1-c1ccc(C#Cc2csc(C)n2)cn1 [Example 64]
3,13,Cc1nc(C#Cc2ccc(-c3cccc(C(F)(F)F)c3)nc2)cs1 [Example 77]
2,1,Cc1nc(C#Cc2cncc(-c3cccc(C#N)c3)c2)cs1 [Example 85]
6,8,Cc1nc(C#Cc2cncc(-c3ccc(CO)cc3)c2)cs1 [Example 65]
5,7,Cc1nc(C#Cc2cncc(CCc3ccccc3)c2)cs1 [Example 67]
3,16,Cc1nc(C#Cc2ccc(Oc3ccccc3)nc2)cs1 [Example 79]
9,12,Cc1nc(C#Cc2ccc(N(C)c3ccccn3)nc2)cs1 [Example 50]
1.6,2,CCOc1ccccc1-c1ccc(C#Cc2csc(C)n2)cn1 [Example 89]
7,4,CCc1ccccc1-c1ccc(C#Cc2csc(C)n2)cn1 [Example 55]
11,2,Cc1nc(C#Cc2ccc(-c3ccc(F)cc3)nc2)cs1 [Example 46]
3,1.4,C=Cc1cncc(C#Cc2csc(C)n2)c1 [Example 78]
0.4,3.8,"Cc1nc(C#Cc2ccc(-n3ccc4cccnc43)nc2)cs1 [Example 17, 1-{5-[(2-methyl-1,3-thiazol-4-yl)ethynyl]pyridin-2-yl}-1H-pyrrolo[2,3-b]pyridine]"
14,10,COc1ccc(C#N)cc1-c1ccc(C#Cc2csc(C)n2)cn1 [Example 37]
11,0.65,Cc1nc(C#Cc2cncc(-c3cccc(Cl)c3)c2)cs1 [Example 43]
8,9,COc1cccc(-c2ccc(C#Cc3csc(C)n3)cn2)c1F [Example 51]
8,2,Cc1cccc(-c2ccc(C#Cc3csc(C)n3)cn2)c1 [Example 52]
1,2,"Cc1nc(C#Cc2ccc(-c3ccccc3F)nc2)cs1 [Example 2, 2-(2-fluorophenyl)-5-[(2-methyl-1,3-thiazol-4-yl)ethynyl]pyridine]"
0.6,0.6,"Cc1nc(C#Cc2cnc(-c3ccccc3C)nc2)cs1 [Example 13, 2-(2-methylphenyl)-5-[(2-methyl-1,3-thiazol-4-yl)ethynyl]pyrimidine]"
6,1.5,Cc1nc(C#Cc2ccc(-c3cccc(Cl)c3C)nc2)cs1 [Example 60]
14,3,Cc1nc(C#Cc2ccc(-c3c(C)cccc3C)nc2)cs1 [Example 36]
